The first experiment concerns the target Kappa-type opioid receptor (Homo sapiens, UniProt P41145). As to the kind of experiment: Agonist activity at recombinant kappa opioid receptor expressed in human U2OS cells coexpressing beta arrestin/EA complex assessed as beta arrestin recruitment after 60 mins by luminescence spectrophotometry. In kind it is functional, cell-based. In general terms: Arrestin recruitment assays detect the binding of arrestin to an activated receptor.
Sequence of Kappa-type opioid receptor (Homo sapiens, UniProt P41145) (P41145 whole entry): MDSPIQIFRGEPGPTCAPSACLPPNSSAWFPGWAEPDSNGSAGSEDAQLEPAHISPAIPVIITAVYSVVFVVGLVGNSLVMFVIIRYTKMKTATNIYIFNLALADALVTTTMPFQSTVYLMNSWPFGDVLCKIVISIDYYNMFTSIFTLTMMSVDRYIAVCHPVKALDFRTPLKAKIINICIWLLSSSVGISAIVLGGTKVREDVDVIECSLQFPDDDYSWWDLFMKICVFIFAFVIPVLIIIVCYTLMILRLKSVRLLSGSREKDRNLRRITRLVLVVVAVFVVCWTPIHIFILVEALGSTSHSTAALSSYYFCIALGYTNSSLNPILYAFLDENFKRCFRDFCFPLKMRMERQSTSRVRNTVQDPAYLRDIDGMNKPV
On to `CC(C)C[C@@H](NC(=O)[C@@H](Cc1ccccc1)NC(=O)[C@H](N)Cc1ccccc1)C(=O)N[C@H](CCCCN)C(=O)NCC(=O)NCCSC1CC(=O)N(c2ccc(CCC(=O)N3CCC3=O)cc2)C1=O` (stereo partly drawn), for which the concentration giving a half-maximal response (EC50) turned out to be 3 nM.
On to `CC(C)C[C@@H](NC(=O)[C@@H](Cc1ccccc1)NC(=O)[C@H](N)Cc1ccccc1)C(=O)N[C@H](CCCCN)C(=O)NCC(=O)NCC(=O)NCC(=O)NCCSC1CC(=O)N(CCC(=O)NCCOCCOCCC(=O)Nc2ccc(CCC(=O)N3CCC3=O)cc2)C1=O` (stereo partly drawn), for which the concentration for a half-maximal effect (EC50) is 176 nM.
On the same count and under the same terms, for `CC(C)C[C@@H](NC(=O)[C@@H](Cc1ccccc1)NC(=O)[C@H](N)Cc1ccccc1)C(=O)N[C@H](CCCCN)C(=O)NCC(=O)NCC(=O)NCC(=O)NCCSC1CC(=O)N(c2ccc(CCC(=O)N3CCC3=O)cc2)C1=O` (stereo partly drawn) the value was 5 nM.
With `CC(C)C[C@@H](NC(=O)[C@@H](Cc1ccccc1)NC(=O)[C@H](N)Cc1ccccc1)C(=O)N[C@H](CCCCN)C(N)=O`, the EC50 came out at 3 nM.
In the case of `CC(C)C[C@@H](NC(=O)[C@@H](Cc1ccccc1)NC(=O)[C@H](N)Cc1ccccc1)C(=O)N[C@H](CCCCN)C(=O)NCC(=O)NCCSC1CC(=O)N(CCC(=O)NCCOCCOCCC(=O)Nc2ccc(CCC(=O)N3CCC3=O)cc2)C1=O` (stereo partly drawn), the half-maximal effective concentration (EC50) came to 1480 nM.

In the next experiment the target is Kappa-type opioid receptor (Cavia porcellus, UniProt P41144). As to the kind of experiment: Agonist activity at kappa opioid receptor in guinea pig ileum assessed as electric field-stimulated response. In kind it is functional, tissue-based.
Sequence of Kappa-type opioid receptor (Cavia porcellus, UniProt P41144) (P41144 whole entry): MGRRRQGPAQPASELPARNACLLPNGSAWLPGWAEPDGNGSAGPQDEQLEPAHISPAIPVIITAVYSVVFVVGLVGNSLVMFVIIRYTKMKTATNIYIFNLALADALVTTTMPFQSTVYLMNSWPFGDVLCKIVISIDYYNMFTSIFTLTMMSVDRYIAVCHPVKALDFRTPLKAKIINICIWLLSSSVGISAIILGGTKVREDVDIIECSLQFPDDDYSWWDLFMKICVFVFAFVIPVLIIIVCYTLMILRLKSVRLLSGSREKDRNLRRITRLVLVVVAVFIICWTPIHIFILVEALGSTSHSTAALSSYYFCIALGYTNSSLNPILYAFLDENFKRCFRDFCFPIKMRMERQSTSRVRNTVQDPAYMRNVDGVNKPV
Turning to `CC(C)C[C@@H](NC(=O)[C@@H](Cc1ccccc1)NC(=O)[C@H](N)Cc1ccccc1)C(=O)N[C@H](CCCCN)C(=O)N1CCC(CC(=O)NCCOCCOCC(=O)NCC(=O)NCc2cn(-c3ccc(C(=O)Nc4ccc(CCC(=O)N5CCC5=O)cc4)cc3)nn2)CC1`, the concentration for a half-maximal effect (EC50) was found to be 0.2 nM.
Still for that read-out and setting: for `CC(C)C[C@@H](NC(=O)[C@@H](Cc1ccccc1)NC(=O)[C@H](N)Cc1ccccc1)C(=O)N[C@H](CCCCN)C(N)=O` the value was 0.22 nM.
Still for that read-out and setting: for `CC(C)C[C@@H](NC(=O)[C@@H](Cc1ccccc1)NC(=O)[C@H](N)Cc1ccccc1)C(=O)N[C@H](CCCCN)C(=O)N1CCC(C(=O)NCCOCCOCC(=O)NCC(=O)NCc2cn(-c3ccc(C(=O)Nc4ccc(CCC(=O)N5CCC5=O)cc4)cc3)nn2)CC1` the value was 0.1 nM.

As usually defined, the EC50 is the concentration giving half of the maximal effect.

Values taken from ChEMBL document CHEMBL2029319, “Kappa agonist CovX-Bodies” (Bioorg Med Chem Lett, 2012).
